# Data from paper PMC12454493, “Insight on novel sulfamoylphenyl pyrazole derivatives as anticancer carbonic anhydrase inhibitors” (Molecular Diversity, 2024).
# Tests used:
# Type in all cases: cell-based
# CCRF-CEM = assay: NCI-60 one-dose SRB screen (Leukemia); details: Homo sapiens, single dose 10 µM, 48 h, read-out: Growth inhibition percent (GI %)
# Experimental: (§1) The National Cancer Institute (NCI) Developmental Therapeutic Program (www.dtp.nci.nih.gov) selected the 20 novel synthesized compounds 4a-e, 5a-e, 6a-c, 9a-e, 10 and 11 to test for their anticancer activity at a single dose of 10 µM using SRB assay. […] Supplementary Data S3; Table S1 presents the detailed screening results of the most promising compounds. The preliminary screening’s detailed results for the remaining compounds are elucidated in the (Supplementary Data S3; Table S2).
# (§2) The guidelines of the Drug Evaluation Branch’s protocol at the NCI in Bethesda served as the basis for the in vitro anticancer screening assays. at one dose 10 µM against a panel of 60 cancer cell lines. The human tumor cell lines used belonged to nine panels: leukemia, melanoma, lung, colon, CNS, ovarian, renal, prostate and breast cancers using the sulforhodamine B (SRB) assay in a 48 h drug exposure protocol.
# HL-60(TB) = assay: NCI-60 one-dose SRB screen (Leukemia); details: Homo sapiens, single dose 10 µM, 48 h, read-out: Growth inhibition percent (GI %)
# Experimental: as §1, §2
# K-562 = assay: NCI-60 one-dose SRB screen (Leukemia); details: Homo sapiens, K562, single dose 10 µM, 48 h, read-out: Growth inhibition percent (GI %)
# Experimental: as §1, §2
# MOLT-4 = assay: NCI-60 one-dose SRB screen (Leukemia); details: Homo sapiens, single dose 10 µM, 48 h, read-out: Growth inhibition percent (GI %)
# Experimental: as §1, §2
# RPMI-8226 = assay: NCI-60 one-dose SRB screen (Leukemia); details: Homo sapiens, single dose 10 µM, 48 h, read-out: Growth inhibition percent (GI %)
# Experimental: as §1, §2
# SR = assay: NCI-60 one-dose SRB screen (Leukemia); details: Homo sapiens, single dose 10 µM, 48 h, read-out: Growth inhibition percent (GI %)
# Experimental: as §1, §2
# A549/ATCC = assay: NCI-60 one-dose SRB screen (Non-Small Cell Lung Cancer); details: Homo sapiens, single dose 10 µM, 48 h, read-out: Growth inhibition percent (GI %)
# Experimental: as §1, §2
# EKVX = assay: as above; details: Homo sapiens, single dose 10 µM, 48 h, read-out: Growth inhibition percent (GI %)
# Experimental: as §1, §2
# HOP-62 = assay: as above; details: Homo sapiens, single dose 10 µM, 48 h, read-out: Growth inhibition percent (GI %)
# Experimental: as §1, §2
# HOP-92 = assay: as above; details: Homo sapiens, single dose 10 µM, 48 h, read-out: Growth inhibition percent (GI %)
# Experimental: as §1, §2
# NCI-H226 = assay: as above; details: Homo sapiens, single dose 10 µM, 48 h, read-out: Growth inhibition percent (GI %)
# Experimental: as §1, §2
# NCI-H23 = assay: as above; details: Homo sapiens, single dose 10 µM, 48 h, read-out: Growth inhibition percent (GI %)
# Experimental: as §1, §2
# NCI-H322M = assay: as above; details: Homo sapiens, single dose 10 µM, 48 h, read-out: Growth inhibition percent (GI %)
# Experimental: as §1, §2
# NCI-H460 = assay: as above; details: Homo sapiens, single dose 10 µM, 48 h, read-out: Growth inhibition percent (GI %)
# Experimental: as §1, §2
# NCI-H522 = assay: as above; details: Homo sapiens, single dose 10 µM, 48 h, read-out: Growth inhibition percent (GI %)
# Experimental: as §1, §2
# COLO 205 = assay: NCI-60 one-dose SRB screen (Colon Cancer); details: Homo sapiens, single dose 10 µM, 48 h, read-out: Growth inhibition percent (GI %)
# Experimental: as §1, §2
# HCC-2998 = assay: NCI-60 one-dose SRB screen (Colon Cancer); details: Homo sapiens, single dose 10 µM, 48 h, read-out: Growth inhibition percent (GI %)
# Experimental: as §1, §2
# HCT-116 = assay: NCI-60 one-dose SRB screen (Colon Cancer); details: Homo sapiens, single dose 10 µM, 48 h, read-out: Growth inhibition percent (GI %)
# Experimental: as §1, §2
# HCT-15 = assay: NCI-60 one-dose SRB screen (Colon Cancer); details: Homo sapiens, single dose 10 µM, 48 h, read-out: Growth inhibition percent (GI %)
# Experimental: as §1, §2
# HT29 = assay: NCI-60 one-dose SRB screen (Colon Cancer); details: Homo sapiens, HT-29, single dose 10 µM, 48 h, read-out: Growth inhibition percent (GI %)
# Experimental: as §1, §2
# KM12 = assay: NCI-60 one-dose SRB screen (Colon Cancer); details: Homo sapiens, single dose 10 µM, 48 h, read-out: Growth inhibition percent (GI %)
# Experimental: as §1, §2
# SW-620 = assay: NCI-60 one-dose SRB screen (Colon Cancer); details: Homo sapiens, single dose 10 µM, 48 h, read-out: Growth inhibition percent (GI %)
# Experimental: as §1, §2
# SF-268 = assay: NCI-60 one-dose SRB screen (CNS Cancer); details: Homo sapiens, single dose 10 µM, 48 h, read-out: Growth inhibition percent (GI %)
# Experimental: as §1, §2
# SF-295 = assay: NCI-60 one-dose SRB screen (CNS Cancer); details: Homo sapiens, single dose 10 µM, 48 h, read-out: Growth inhibition percent (GI %)
# Experimental: as §1, §2
# SF-539 = assay: NCI-60 one-dose SRB screen (CNS Cancer); details: Homo sapiens, single dose 10 µM, 48 h, read-out: Growth inhibition percent (GI %)
# Experimental: as §1, §2
# SNB-19 = assay: NCI-60 one-dose SRB screen (CNS Cancer); details: Homo sapiens, single dose 10 µM, 48 h, read-out: Growth inhibition percent (GI %)
# Experimental: as §1, §2
# SNB-75 = assay: NCI-60 one-dose SRB screen (CNS Cancer); details: Homo sapiens, single dose 10 µM, 48 h, read-out: Growth inhibition percent (GI %)
# Experimental: as §1, §2
# U251 = assay: NCI-60 one-dose SRB screen (CNS Cancer); details: Homo sapiens, U-251, single dose 10 µM, 48 h, read-out: Growth inhibition percent (GI %)
# Experimental: as §1, §2
# LOX IMVI = assay: NCI-60 one-dose SRB screen (Melanoma); details: Homo sapiens, single dose 10 µM, 48 h, read-out: Growth inhibition percent (GI %)
# Experimental: as §1, §2
# M14 = assay: NCI-60 one-dose SRB screen (Melanoma); details: Homo sapiens, single dose 10 µM, 48 h, read-out: Growth inhibition percent (GI %)
# Experimental: as §1, §2
smiles,measurement,setting,value
"Cc1ccc(-c2nn(-c3ccc(S(N)(=O)=O)cc3)cc2C(=O)OCC(=O)Nc2ccc(S(N)(=O)=O)cc2)cc1 [Compound 4b, 2-Oxo-2-[(4-sulfamoylphenyl)amino] ethyl 1-(4-sulfamoylphenyl)-3-(p-tolyl)-1H-pyrazole-4-carboxylate]",inhibition at 10 µM,CCRF-CEM,< 5%
same,inhibition at 10 µM,HL-60(TB),5.09%
same,inhibition at 10 µM,K-562,7.16%
same,inhibition at 10 µM,MOLT-4,< 5%
same,inhibition at 10 µM,RPMI-8226,< 5%
same,inhibition at 10 µM,SR,30.2%
same,inhibition at 10 µM,A549/ATCC,7.63%
same,inhibition at 10 µM,EKVX,< 5%
same,inhibition at 10 µM,HOP-62,< 5%
same,inhibition at 10 µM,HOP-92,< 5%
same,inhibition at 10 µM,NCI-H226,< 5%
same,inhibition at 10 µM,NCI-H23,< 5%
same,inhibition at 10 µM,NCI-H322M,6.16%
same,inhibition at 10 µM,NCI-H460,< 5%
same,inhibition at 10 µM,NCI-H522,25.6%
same,inhibition at 10 µM,COLO 205,< 5%
same,inhibition at 10 µM,HCC-2998,< 5%
same,inhibition at 10 µM,HCT-116,< 5%
same,inhibition at 10 µM,HCT-15,< 5%
same,inhibition at 10 µM,HT29,11.6%
same,inhibition at 10 µM,KM12,< 5%
same,inhibition at 10 µM,SW-620,< 5%
same,inhibition at 10 µM,SF-268,10.3%
same,inhibition at 10 µM,SF-295,< 5%
same,inhibition at 10 µM,SF-539,20.3%
same,inhibition at 10 µM,SNB-19,< 5%
same,inhibition at 10 µM,SNB-75,< 5%
same,inhibition at 10 µM,U251,< 5%
same,inhibition at 10 µM,LOX IMVI,< 5%
same,inhibition at 10 µM,M14,< 5%
